No end group written: not given here.
Experiments:
[1] = test system: nerve cells of the N/K/M multicellular model; experiment: Growth of nerve endings through the porous insert (anti-β-tubulin epifluorescence); format: cell-based; settings: 10^−5 M noradrenalin, 10 days
Protocol: Using a multicellular model as obtained in Example 1, the cells were cultured in the absence or presence of 10^−5 M noradrenalin, for 10 days.
The N/K/M culture medium was deposited into the culture wells and into the inserts.
The various media were renewed 50/50 every day.
The nerve cells were labelled with an anti-β-tubulin monoclonal antibody (Sigma T8660) and then visualized with goat anti-mouse immunoglobulin antibody-Alexa fluor 488 conjugate (Interchim A-11029).
After thorough washing in PBS, the preparations were observed by epifluorescence (Nikon Diaphot 300 microscope) and photographed.
The photographs were taken below the insert (on the keratinocyte-neuron site).

[2] = test system: nerve cell-keratinocyte-melanocyte (N/K/M) multicellular model (melanogenesis); experiment: Melanin amount in nerve cell-keratinocyte-melanocyte (N/K/M) multicellular model under noradrenergic stress; format: cell-based, human; settings: for amount of melanin, +noradrenalin: 10^−5 M noradrenalin alone (Control) or with CGRP8-37 10^−6 M or Calmiskin 0.03%; for melanin synthesis by melanocytes (in words): multicellular model
Protocol: The experimental data were analyzed by means of the PRISM® software (graph pad software). The intergroup comparisons were carried out by analysis of variance (ANOVA) using Dunnett's multiple comparison test. The comparisons between two samples were carried out by analysis using the T test. They represent the mean of 4 independent experiments. They are expressed in μg of melanin/ml.

[3] = test system: CGRP release by nerve cells; experiment: Measurement of CGRP release in culture supernatants of the N/K/M model (ELISA); format: cell-based, rat
Protocol: At the end of the experiment described in Example 3, the supernatants from the wells and from the inserts were collected separately and immediately frozen at −80° C. in order to analyze the CGRP content. The CGRP content was measured in the culture supernatants by means of an ELISA assay (Rat CGRP enzyme Immuno Assay Kit, Spi Bio A05482) according to the protocol recommended by the supplier. The results are expressed in μg of CGRP/ml of medium. The analysis of the results was carried out as described above.

[4] = 10 days, mean of 4 independent experiments

Molecule: NC[C@H](O)c1ccc(O)c(O)c1 [noradrenalin]
- density of the cell extensions (nerve endings crossing the insert) [1]: increased
- change in amount of melanin synthesized in the cocultures ([2]; 10^−5 M noradrenalin versus control without noradrenalin, 10 days): +15%
- amount of melanin, +noradrenalin [2, 4]: 25.77 ± 0.72 μg of melanin/ml
- melanin synthesis by melanocytes (in words) [2]: increase in melanin synthesis
- CGRP release in the insert (in words) ([3]; insert supernatant, 10^−5 M noradrenalin, with or without 0.03% Calmiskin): very substantial
- CGRP content, insert ([3]; supernatant of inserts (nerve cells), 10 days, 10^−5 M noradrenalin alone or with 0.03% Calmiskin): 493.86 ± 11.57 μg of CGRP/ml of medium
- CGRP content, culture well ([3]; supernatant of wells (keratinocyte/melanocyte side), 10 days, 10^−5 M noradrenalin alone or with 0.03% Calmiskin): 170.48 ± 19.47 μg of CGRP/ml of medium

Molecule: CGRP8-37: reference CGRP receptor antagonist (VTHRLAGLLSRSGGVVKNNFVPTNVGSKAF; ends and bridges not checked; UniProt P06881 90-119, looked up, fragment)
- amount of melanin, +noradrenalin [2, 4]: 21.35 ± 0.91 μg of melanin/ml
- amount of melanin, without noradrenalin ([2]; 10 days, no noradrenalin, CGRP8-37 10^−6 M, Calmiskin 0.03%, mean of 4 independent experiments): 19.33 ± 0.48 μg of melanin/ml
- melanin synthesis by melanocytes (in words) [2]: considerable decrease in melanin synthesis
- change in amount of melanin in the presence of noradrenalin ([2]; versus 10^−5 M noradrenalin alone, Calmiskin 0.03%, CGRP8-37 10^−6 M, 10 days): −17.2%

Source: patent publication US7910367B2, “Cell culture model and applications thereof” (L'Oreal, priority 2006, dated 2011)
